Test results taken from PubChem BioAssay (NCI).
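These data come from cells grown in 96-well plates and exposed to compound for 48 hours at five concentrations. TGI: concentration producing complete growth inhibition.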

Test system: MDA-MB-435
Test: NCI anticancer screen, dose series, 48 h

Point of comparison: `CCOC(=O)CCC(NC(=O)C(N)Cc1ccc(N(CCCl)CCCl)cc1)C(=O)OCC` (stereo not given), TGI 3.75 µM. Against it:
- COc1ccc(NC(=S)c2ccc(CN3CCCCC3)s2)cc1 — 9.3-fold higher, 34.7 µM
- O=C1C(Br)=C(Br)C(=O)c2ccc(=O)ccc21 — 8.9-fold higher, 33.3 µM
- CC(N)/C(N)=N/O (stereo not given) — higher, > 100 µM

Test system: NCI-H460 lung
Test: NCI anticancer screen, dose series, 48 h

Point of comparison: `COc1ccc(NC(=S)c2ccc(CN3CCCCC3)s2)cc1`, TGI 37.4 µM. Against it:
- C[C@]12c3c4cc(NC(=O)C(=O)NCc5ccc(-c6ccccn6)nc5)cc3Oc3cc(NC(=O)C(=O)NCc5ccc(-c6ccccn6)nc5)cc(c31)OC1C=C(NC(=O)C(=O)NCc3ccc(-c5ccccn5)nc3)C=C(O4)C12 (stereo not given in full) — higher, > 100 µM
- COc1ccc(C(C)NNC(=O)c2ccncc2)cc1OC (stereo not given) — higher, > 100 µM
- C[C@]12[C@@H]3CC[C@H]1[C@@H](O)C(=O)N2CC3 — higher, > 100 µM
- O=C1C(Br)=C(Br)C(=O)c2ccc(=O)ccc21 — 1.8-fold higher, 67.6 µM
- CC(N)/C(N)=N/O (stereo not given) — higher, > 100 µM
- CCOC(=O)CCC(NC(=O)C(N)Cc1ccc(N(CCCl)CCCl)cc1)C(=O)OCC (stereo not given) — 9.1-fold lower, 4.09 µM

Test system: OVCAR-8 ovarian
Test: NCI anticancer screen, dose series, 48 h

Point of comparison: `O=C1C(Br)=C(Br)C(=O)c2ccc(=O)ccc21`, TGI 50.8 µM. Against it:
- C[C@]12c3c4cc(NC(=O)C(=O)NCc5ccc(-c6ccccn6)nc5)cc3Oc3cc(NC(=O)C(=O)NCc5ccc(-c6ccccn6)nc5)cc(c31)OC1C=C(NC(=O)C(=O)NCc3ccc(-c5ccccn5)nc3)C=C(O4)C12 (stereo not given in full) — higher, > 100 µM
- COc1ccc(C(C)NNC(=O)c2ccncc2)cc1OC (stereo not given) — higher, > 100 µM
- C[C@]12[C@@H]3CC[C@H]1[C@@H](O)C(=O)N2CC3 — higher, > 100 µM
- COc1ccc(NC(=S)c2ccc(CN3CCCCC3)s2)cc1 — within 1.5-fold, 45.4 µM
- CC(N)/C(N)=N/O (stereo not given) — higher, > 100 µM
- CCOC(=O)CCC(NC(=O)C(N)Cc1ccc(N(CCCl)CCCl)cc1)C(=O)OCC (stereo not given) — 21-fold lower, 2.4 µM

Test system: PC-3 prostate
Test: NCI anticancer screen, dose series, 48 h

Point of comparison: `CCOC(=O)CCC(NC(=O)C(N)Cc1ccc(N(CCCl)CCCl)cc1)C(=O)OCC` (stereo not given), TGI 7.9 µM. Against it:
- C[C@]12c3c4cc(NC(=O)C(=O)NCc5ccc(-c6ccccn6)nc5)cc3Oc3cc(NC(=O)C(=O)NCc5ccc(-c6ccccn6)nc5)cc(c31)OC1C=C(NC(=O)C(=O)NCc3ccc(-c5ccccn5)nc3)C=C(O4)C12 (stereo not given in full) — higher, > 100 µM
- COc1ccc(C(C)NNC(=O)c2ccncc2)cc1OC (stereo not given) — higher, > 100 µM
- C[C@]12[C@@H]3CC[C@H]1[C@@H](O)C(=O)N2CC3 — higher, > 100 µM
- COc1ccc(NC(=S)c2ccc(CN3CCCCC3)s2)cc1 — 7.9-fold higher, 62.2 µM
- O=C1C(Br)=C(Br)C(=O)c2ccc(=O)ccc21 — higher, > 100 µM
- CC(N)/C(N)=N/O (stereo not given) — higher, > 100 µM

Test system: RPMI-8226 leukemia
Test: NCI anticancer screen, dose series, 48 h

Point of comparison: `COc1ccc(NC(=S)c2ccc(CN3CCCCC3)s2)cc1`, TGI 74.7 µM. Against it:
- C[C@]12c3c4cc(NC(=O)C(=O)NCc5ccc(-c6ccccn6)nc5)cc3Oc3cc(NC(=O)C(=O)NCc5ccc(-c6ccccn6)nc5)cc(c31)OC1C=C(NC(=O)C(=O)NCc3ccc(-c5ccccn5)nc3)C=C(O4)C12 (stereo not given in full) — higher, > 100 µM
- COc1ccc(C(C)NNC(=O)c2ccncc2)cc1OC (stereo not given) — higher, > 100 µM
- C[C@]12[C@@H]3CC[C@H]1[C@@H](O)C(=O)N2CC3 — higher, > 100 µM
- O=C1C(Br)=C(Br)C(=O)c2ccc(=O)ccc21 — 1.7-fold lower, 43 µM
- CC(N)/C(N)=N/O (stereo not given) — higher, > 100 µM
- CCOC(=O)CCC(NC(=O)C(N)Cc1ccc(N(CCCl)CCCl)cc1)C(=O)OCC (stereo not given) — 4.2-fold lower, 17.7 µM

Test system: SK-MEL-2 melanoma
Test: NCI anticancer screen, dose series, 48 h

Point of comparison: `COc1ccc(NC(=S)c2ccc(CN3CCCCC3)s2)cc1`, TGI 36.9 µM. Against it:
- C[C@]12c3c4cc(NC(=O)C(=O)NCc5ccc(-c6ccccn6)nc5)cc3Oc3cc(NC(=O)C(=O)NCc5ccc(-c6ccccn6)nc5)cc(c31)OC1C=C(NC(=O)C(=O)NCc3ccc(-c5ccccn5)nc3)C=C(O4)C12 (stereo not given in full) — higher, > 100 µM
- COc1ccc(C(C)NNC(=O)c2ccncc2)cc1OC (stereo not given) — higher, > 100 µM
- C[C@]12[C@@H]3CC[C@H]1[C@@H](O)C(=O)N2CC3 — higher, > 100 µM
- O=C1C(Br)=C(Br)C(=O)c2ccc(=O)ccc21 — higher, > 75.1 µM
- CC(N)/C(N)=N/O (stereo not given) — higher, > 100 µM
- CCOC(=O)CCC(NC(=O)C(N)Cc1ccc(N(CCCl)CCCl)cc1)C(=O)OCC (stereo not given) — 6.1-fold lower, 6.05 µM

Test system: SK-MEL-5 melanoma
Test: NCI anticancer screen, dose series, 48 h

Point of comparison: `O=C1C(Br)=C(Br)C(=O)c2ccc(=O)ccc21`, TGI 44.4 µM. Against it:
- C[C@]12c3c4cc(NC(=O)C(=O)NCc5ccc(-c6ccccn6)nc5)cc3Oc3cc(NC(=O)C(=O)NCc5ccc(-c6ccccn6)nc5)cc(c31)OC1C=C(NC(=O)C(=O)NCc3ccc(-c5ccccn5)nc3)C=C(O4)C12 (stereo not given in full) — higher, > 100 µM
- COc1ccc(C(C)NNC(=O)c2ccncc2)cc1OC (stereo not given) — higher, > 100 µM
- C[C@]12[C@@H]3CC[C@H]1[C@@H](O)C(=O)N2CC3 — higher, > 100 µM
- COc1ccc(NC(=S)c2ccc(CN3CCCCC3)s2)cc1 — 1.6-fold lower, 28 µM
- CC(N)/C(N)=N/O (stereo not given) — higher, > 100 µM
- CCOC(=O)CCC(NC(=O)C(N)Cc1ccc(N(CCCl)CCCl)cc1)C(=O)OCC (stereo not given) — 15-fold lower, 2.93 µM

Test system: SR leukemia
Test: NCI anticancer screen, dose series, 48 h

Point of comparison: `C[C@]12c3c4cc(NC(=O)C(=O)NCc5ccc(-c6ccccn6)nc5)cc3Oc3cc(NC(=O)C(=O)NCc5ccc(-c6ccccn6)nc5)cc(c31)OC1C=C(NC(=O)C(=O)NCc3ccc(-c5ccccn5)nc3)C=C(O4)C12` (stereo not given in full), TGI 51.9 µM. Against it:
- COc1ccc(C(C)NNC(=O)c2ccncc2)cc1OC (stereo not given) — higher, > 100 µM
- C[C@]12[C@@H]3CC[C@H]1[C@@H](O)C(=O)N2CC3 — higher, > 100 µM
- COc1ccc(NC(=S)c2ccc(CN3CCCCC3)s2)cc1 — within 1.5-fold, 51.8 µM
- O=C1C(Br)=C(Br)C(=O)c2ccc(=O)ccc21 — within 1.5-fold, 45 µM
- CC(N)/C(N)=N/O (stereo not given) — higher, > 100 µM
- CCOC(=O)CCC(NC(=O)C(N)Cc1ccc(N(CCCl)CCCl)cc1)C(=O)OCC (stereo not given) — 3.7-fold lower, 14 µM

Test system: UACC-62 melanoma
Test: NCI anticancer screen, dose series, 48 h

Point of comparison: `COc1ccc(NC(=S)c2ccc(CN3CCCCC3)s2)cc1`, TGI 32.8 µM. Against it:
- C[C@]12c3c4cc(NC(=O)C(=O)NCc5ccc(-c6ccccn6)nc5)cc3Oc3cc(NC(=O)C(=O)NCc5ccc(-c6ccccn6)nc5)cc(c31)OC1C=C(NC(=O)C(=O)NCc3ccc(-c5ccccn5)nc3)C=C(O4)C12 (stereo not given in full) — 2.4-fold higher, 79.1 µM
- COc1ccc(C(C)NNC(=O)c2ccncc2)cc1OC (stereo not given) — higher, > 100 µM
- C[C@]12[C@@H]3CC[C@H]1[C@@H](O)C(=O)N2CC3 — higher, > 100 µM
- O=C1C(Br)=C(Br)C(=O)c2ccc(=O)ccc21 — within 1.5-fold, 39.4 µM
- CC(N)/C(N)=N/O (stereo not given) — higher, > 100 µM
- CCOC(=O)CCC(NC(=O)C(N)Cc1ccc(N(CCCl)CCCl)cc1)C(=O)OCC (stereo not given) — 23-fold lower, 1.4 µM
